Results as given in patent publication US5589510A, “Method for inhibiting retroviral infection by administering a naphthalenesulfonic acid compound” (priority 1995, dated 1996).
Like-named read-outs stand apart in the source and are kept apart here.

Columns and labels:
[1] = LD50, intravenous, mice; assay type: in vivo; conditions: mouse, in vivo, female mice, mortalities within 1 week
Protocol: The test material was administered intravenously to 5 female mice in five increasing doses. Mortalities were recorded within 1 week, and the LD50 was determined with the aid of statistical calculations.

[2] = test system: HIV-1 RF; assay: Antiviral assay, Experimental Protocol I (compound added after infection); assay type: cell-based; conditions: Human immunodeficiency virus 1, 240 h, p24 ELISA, read-out: % Inhibition (after day 10); for inhibition at 1.25 µg/mL: 1.25 μg/ml; for inhibition at 2.5 µg/mL: 2.5 μg/ml; for inhibition at 5 µg/mL: 5 μg/ml; for inhibition at 0.6 µg/mL: 0.6 μg/ml
Protocol: HIV-1 infectivity studies were conducted in CEM, H9, MT2 cells and peripheral blood mononuclear cells (PBMC). CEM, H9 and MT2 were grown in RPMI1640 medium, 10% heat-inactivated fetal bovine serum (FBS). PBMCs were stimulated with 4 μg/ml PHA for 48 hours in RPMI1640, 10% FBS before HIV-1 infection. After HIV-1 infection, PBMCs were maintained in RPMI 1640, 10% FBS and 10 10 units/ml IL-2. The major HIV-1 isolates used were MN, IIIB, SF2, AZT-sensitive A018 and AZT-resistant A018 provided by NIH AIDS research and reference reagent program. Two major antiviral assays were developed to determine the antiviral activities of the compounds of this invention (as inhibitors).
I. The cells were infected with HIV-1 RF or IIIB at an infectivity multiplicity (moi) of 0.001 in the absence of a compound of this invention for one hour. HIV-1 infected cells were washed once with PBS, resuspended in RPMI1640, 10% FBS medium and distributed in 24-well culture dishes (5×10^5 cells per well) in the presence of a compound of this invention as inhibitor. […]

[3] = test system: TA98, TA1535, TA1537, TA1538, TA100 and W2P2uvr; assay: Ames Test (in the presence of S9); assay type: cell-based, Salmonella typhimurium; conditions: for Ames Test, specific mutagenic activity: the higher the value, the higher the mutagenicity
Source text: Six Salmonella typhimuriumstrai strains, TA98, TA1535, TA1537, TA1538, TA100 and W2P2uvr were used in this experiment.

Compound | LD50 at 168 h [1] [mg/kg] | inhibition at 1.25 µg/mL ([2]; 10% FCS) [%] | inhibition at 2.5 µg/mL ([2]; 10% FCS) [%] | inhibition at 5 µg/mL ([2]; 10% FCS) [%] | Ames Test result [3] | also measured
COc1cc(N=Nc2c(S(=O)(=O)O)cc3cc(S(=O)(=O)O)cc(NC(=O)c4cccc(Cl)c4Cl)c3c2O)c(OC)cc1N=Nc1c(S(=O)(=O)O)cc2cc(S(=O)(=O)O)cc(NC(=O)Cc3ccccc3)c2c1O [Compound 2] | 150 | 60 | 73 | 98 | Negative | 
COc1cc(N=Nc2c(S(=O)(=O)O)cc3cc(S(=O)(=O)O)cc(NC(=O)c4cccc(Cl)c4Cl)c3c2O)c(OC)cc1N=Nc1c(S(=O)(=O)O)cc2cc(S(=O)(=O)O)cc(NC(=O)c3cccc(Cl)c3Cl)c2c1O [Compound 8] | 160 | 99 | 99 | 99 | Negative | inhibition at 0.6 µg/mL ([2]; 10% FCS): 87%; inhibition at 1.25 µg/mL ([2]; 50% Human Serum): 0%; inhibition at 2.5 µg/mL ([2]; 50% Human Serum): 0%; inhibition at 5 µg/mL ([2]; 50% Human Serum): 95%
COc1cc(N=Nc2c(S(=O)(=O)O)cc3cc(S(=O)(=O)O)cc(NC(=O)c4cccc(Cl)c4Cl)c3c2O)c(OC)cc1N=Nc1c(S(=O)(=O)O)cc2cc(S(=O)(=O)O)cc(NC(=O)c3cc(Cl)ccc3Cl)c2c1O [Compound 9] | 150 | 99 | 99 | 100 | Negative | inhibition at 0.6 µg/mL ([2]; 10% FCS): 63%; inhibition at 0.6 µg/mL ([2]; 50% Human Serum): 0%; inhibition at 1.25 µg/mL ([2]; 50% Human Serum): 0%; inhibition at 2.5 µg/mL ([2]; 50% Human Serum): 16%; inhibition at 5 µg/mL ([2]; 50% Human Serum): 90%
COc1cc(N=Nc2c(S(=O)(=O)O)cc3cc(S(=O)(=O)O)cc(NC(=O)c4cccc5ccccc45)c3c2O)c(OC)cc1N=Nc1c(S(=O)(=O)O)cc2cc(S(=O)(=O)O)cc(NC(=O)c3ccc(C(F)(F)F)cc3)c2c1O [Compound 19] | 140 |  |  |  | Negative | 
COc1cc(N=Nc2c(S(=O)(=O)O)cc3cc(S(=O)(=O)O)cc(NC(=O)c4ccc(Cl)cc4Cl)c3c2O)c(OC)cc1N=Nc1c(S(=O)(=O)O)cc2cc(S(=O)(=O)O)cc(NC(=O)Cc3cccc4ccccc34)c2c1O [Compound 20] | 150 |  |  |  | Positive | Ames Test, specific mutagenic activity [3]: 0.08 colony no/μg
COc1cc(N=Nc2c(S(=O)(=O)O)cc3cc(S(=O)(=O)O)cc(NC(=O)c4cccc([N+](=O)[O-])c4)c3c2O)c(OC)cc1N=Nc1c(S(=O)(=O)O)cc2cc(S(=O)(=O)O)cc(NC(=O)c3ccccc3)c2c1O [Compound 22] | 140 |  |  |  | Positive | Ames Test, specific mutagenic activity [3]: 0.4 colony no/μg
COc1cc(N=Nc2c(S(=O)(=O)O)cc3cc(S(=O)(=O)O)cc(NC(=O)c4ccc(C)cc4)c3c2O)c(OC)cc1N=Nc1c(S(=O)(=O)O)cc2cc(S(=O)(=O)O)cc(NC(=O)c3ccccc3)c2c1O [Compound 23] | 130 |  |  |  | Negative | 
COc1cc(N=Nc2c(S(=O)(=O)O)cc3cc(S(=O)(=O)O)cc(NC(=O)c4ccccc4)c3c2O)c(OC)cc1N=Nc1c(S(=O)(=O)O)cc2cc(S(=O)(=O)O)cc(NC(=O)Nc3ccc(F)cc3)c2c1O [Compound 24] | 140 |  |  |  | Negative | 
COc1cc(N=Nc2c(S(=O)(=O)O)cc3cc(S(=O)(=O)O)cc(NC(=O)c4ccccc4OC)c3c2O)c(OC)cc1N=Nc1c(S(=O)(=O)O)cc2cc(S(=O)(=O)O)cc(NC(=O)c3ccccc3)c2c1O [Compound 25] | 160 |  |  |  | Negative | 
COc1cc(N=Nc2c(S(=O)(=O)O)cc3cc(S(=O)(=O)O)cc(NC(=O)c4ccc(C#N)cc4)c3c2O)c(OC)cc1N=Nc1c(S(=O)(=O)O)cc2cc(S(=O)(=O)O)cc(NC(=O)c3ccccc3)c2c1O [Compound 26] | 150 |  |  |  | Negative | 
O=C(Nc1cc(S(=O)(=O)O)cc2cc(S(=O)(=O)O)c(N=Nc3ccc(N=Nc4c(S(=O)(=O)O)cc5cc(S(=O)(=O)O)cc(NC(=O)c6cccc(Cl)c6Cl)c5c4O)cc3)c(O)c12)c1ccc(Cl)cc1Cl [Compound 29] |  |  |  |  | Negative | 
O=C(Nc1cc(S(=O)(=O)O)cc2cc(S(=O)(=O)O)c(N=Nc3ccc(N=Nc4c(S(=O)(=O)O)cc5cc(S(=O)(=O)O)cc(NC(=O)c6cccc(Cl)c6Cl)c5c4O)c(Cl)c3)c(O)c12)c1ccc(Cl)cc1Cl [Compound 30] |  |  |  |  | Negative | 
Cc1cc(N=Nc2c(S(=O)(=O)O)cc3cc(S(=O)(=O)O)cc(NC(=O)c4cccc(Cl)c4Cl)c3c2O)c(C)cc1N=Nc1c(S(=O)(=O)O)cc2cc(S(=O)(=O)O)cc(NC(=O)c3ccc(Cl)cc3Cl)c2c1O [Compound 31] |  | 0 | 88 | 100 | Negative | 
COc1cc(N=Nc2c(O)ccc3ccc(S(=O)(=O)O)cc23)c(OC)cc1N=Nc1c(S(=O)(=O)O)cc2cc(S(=O)(=O)O)cc(NC(=O)c3ccc(Cl)cc3Cl)c2c1O [Compound 34] |  |  |  |  | Negative | 
COc1cc(N=Nc2c(O)ccc3ccc(S(=O)(=O)O)cc23)c(OC)cc1N=Nc1c(S(=O)(=O)O)cc2cc(S(=O)(=O)O)cc(NC(=O)c3cccc(C(F)(F)F)c3)c2c1O [Compound 36] |  |  |  |  | Negative | 
COc1cc(N=Nc2c(O)ccc3ccc(S(=O)(=O)O)cc23)c(OC)cc1N=Nc1c(S(=O)(=O)O)cc2cc(S(=O)(=O)O)cc(NC(=O)c3ccc(C#N)cc3)c2c1O [Compound 37] |  |  |  |  | Negative | 
COc1cc(N=Nc2c(O)ccc3ccc(S(=O)(=O)O)cc23)c(OC)cc1N=Nc1c(S(=O)(=O)O)cc2cc(S(=O)(=O)O)cc(NC(=O)c3cccc4ccccc34)c2c1O [Compound 38] |  | 99 | 99 | 100 | Negative | 
COc1cc(N=Nc2c(O)ccc3ccc(S(=O)(=O)O)cc23)c(OC)cc1N=Nc1c(S(=O)(=O)O)cc2cc(S(=O)(=O)O)cc(NC(=O)c3ccc4ccccc4c3)c2c1O [Compound 39] |  |  |  |  | Negative | 
COc1cc(N=Nc2c(O)ccc3ccc(S(=O)(=O)O)cc23)c(OC)cc1N=Nc1c(S(=O)(=O)O)cc2cc(S(=O)(=O)O)cc(NC(=O)c3cccnc3)c2c1O [Compound 40] |  |  |  |  | Negative | 
COc1cc(N=Nc2c(O)ccc3ccc(S(=O)(=O)O)cc23)c(OC)cc1N=Nc1c(S(=O)(=O)O)cc2cc(S(=O)(=O)O)cc(NC(=O)COc3ccccc3)c2c1O [Compound 41] |  |  |  |  | Negative | 
COc1cc(N=Nc2c(O)ccc3ccc(S(=O)(=O)O)cc23)c(OC)cc1N=Nc1c(S(=O)(=O)O)cc2cc(S(=O)(=O)O)cc(NC(=O)Cc3cccc4ccccc34)c2c1O [Compound 42] |  | 28 | 99 | 99 | Negative | 
CCC(C)(C)c1ccc(OCC(=O)Nc2cc(S(=O)(=O)O)cc3cc(S(=O)(=O)O)c(N=Nc4cc(OC)c(N=Nc5c(O)ccc6ccc(S(=O)(=O)O)cc56)cc4OC)c(O)c23)c(C(C)(C)CC)c1 [Compound 43] |  | 0 | 0 | 99 | Negative | 
O=C(Nc1cc(S(=O)(=O)O)cc2cc(S(=O)(=O)O)c(N=Nc3ccc(N=Nc4c(O)ccc5ccc(S(=O)(=O)O)cc45)cc3Cl)c(O)c12)c1ccccc1 [Compound 45] |  | 92 | 99 | 99 |  | 
